Columns and labels:
[1] = tested on: Trypanosoma brucei rhodesiense; experiment: Antiprotozoal activity against blood stream form of Trypanosoma brucei rhodesiense STIB900 after 72 hrs by alamar blue assay; format: functional, organism-based; settings: STIB900, 72 h
[2] = tested on: Leishmania donovani; experiment: Antiprotozoal activity against amastigote form of Leishmania donovani MHOM/ET/67/L82 after 72 hrs by alamar blue assay; format: functional, organism-based; settings: MHOM/ET/67/L82, 72 h
[3] = tested on: Plasmodium falciparum; experiment: Antiprotozoal activity against erythrocytic form of chloroquine/pyrimethamine-resistant Plasmodium falciparum K1 after 48 hrs by [3H]-hypoxanthine incorporation assay; format: functional, organism-based
[4] = tested on: L6; experiment: Cytotoxicity against rat L6 cells after 72 hrs by alamar blue assay; format: cell-based; settings: L6, 72 h
[5] = tested on: Trypanosoma cruzi; experiment: Antiprotozoal activity against trypomastigote form of Trypanosoma cruzi Tulahuen C2C4 infected in rat L6 cells after 96 hrs by CPRG/Nonidet-based […]; format: functional, organism-based; settings: Tulahuen C2C4, L6, 96 h

Row | Compound | IC50 [1] [µM] | IC50 [2] [µM] | IC50 [3] [µM] | IC50 [4] [µM] | IC50 [5] [µM]
1 | CC1=C(O)/C(=C/[C@H](C)CCC/C(C)=C/CCc2coc(CC3=CCN(CC(=O)O)C3=O)c2)OC1=O | 130 | 120 | 95 | > 200 | –
2 | CC1=C(O)/C(=C/[C@H](C)CCC/C(C)=C/CCC2=CC(Cc3ccoc3)N(CC(=O)O)C2=O)OC1=O (stereo partly specified) | 130 | 95 | > 100 | > 200 | –
3 | Nc1nc(N)nc(Nc2ccc([As]3SCC(CO)S3)cc2)n1 (stereo unspecified) [MELARSOPROL] | 0.015 | – | – | – | –
4 | O=C(Cn1ccnc1[N+](=O)[O-])NCc1ccccc1 [BENZNIDAZOLE] | – | – | – | – | 3.07
5 | CC1=C(O)/C(=C/[C@H](C)CCC/C(C)=C/CCc2coc(Cc3ccoc3)c2)OC1=O [IRCININ 1] | 97 | 31 | 58 | 150 | 120
6 | COc1cc([C@@H]2c3cc4c(cc3[C@H](O)[C@H]3COC(=O)[C@H]23)OCO4)cc(OC)c1OC [PODOFILOX] | – | – | – | 0.01 | –
7 | CC1=C(O)/C(=C/[C@H](C)CC/C=C(/C)CCCc2coc(Cc3ccoc3)c2)OC1=O [IRCININ 2] | 65 | 28 | 56 | 140 | 110
